In patent US20160199445A1, “USE OF ARPIN A NEW INHIBITOR OF THE ARP2/3 COMPLEX FOR THE DIAGNOSIS AND TREATMENT OF DISEASES” (CENTRE NATIONAL DE LA RECHERCHE SCIENTIFIQUE, priority 2013, published 2016):

What was measured:
[1] = system: Arp2/3 complex; experiment: Competition pulldown: HeLa cell extract and GST N-WASP VCA immobilized on glutathione beads; type: binding; conditions: 5 μM GST N-WASP VCA; Arpin/ArpinΔA 18 μM, ArpinA 304 μM and serial 2-fold dilutions
Description: (§1) FIG. 1: Arpin inhibits Arp2/3 activation in vitro. a, Alignment of acidic C-termini of 3 NPFs and of Arpin. […] Pulldown was performed with HeLa cell extract and GST fusions of Arpin full length (FL), Arpin deleted of its last 16 amino-acids (ΔA), the last 16 amino-acids (A) or the VCA domain of N-WASP as a positive control. Arp2/3 binding was assessed by western blot against the ArpC2 subunit. c, Spectrofluorimetry assay to monitor actin polymerisation.
(§2) Arp2/3 is displaced from its interaction with 5 μM GST N-WASP VCA immobilized on glutathione beads by the Arpin Acidic peptide (304 μM and serial 2-fold dilutions).
(§3) 6. GST Pull Down, Immunoprecipitations, SDS-PAGE and Western Blots HeLa cells were lysed in 50 mM Tris-HCl, 150 mM NaCl, 1 mM EDTA, 1 mM DTT, 0.5% Triton-X100, 5% glycerol, pH 7.5. 20 μg of GST fusion protein associated with 20 μl of glutathione sepharose 4B beads (GE […]) were incubated with 1 ml of HeLa cell extracts for 2 h at 4° C. Beads were washed and analysed by western blot.

[2] = system: Arp2/3 complex; experiment: Pyrene-actin polymerisation assay (spectrofluorimetry); type: biochemical; conditions: for inhibition of VCA-activated Arp2/3 actin polymerisation: 2 μM actin (10% pyrene-labelled), 500 nM VCA, 20 nM Arp2/3
Description: as §1
Conditions: 2 μM Actin (10% pyrene-labelled), 20 nM Arp2/3, 500 nM Scar VCA, 5 μM Arpin.
FIG. 8: Determination of apparent Kd from Arpin inhibition of Arp2/3 nucleation. a, Arpin inhibits Arp2/3 activation in the pyrene-actin assay.
as §2
(§4) Pyrene actin assays and monitoring of the branching reaction were performed as described in reference 38 with the conditions described in figure legends. VCA refers to the VCA domain of WAVE1 purified as described^39.

[3] = system: Arp2/3 complex; experiment: GST fusion pulldown of Arp2/3 from HeLa cell extract (western blot against ArpC2); type: binding; conditions: GST fusions
Description: as §1, §3

[4] = system: Arp2/3 complex; experiment: Assembly of branched actin networks monitored by TIRF microscopy; type: biochemical; conditions: 1 μM actin, 150 nM VCA, 80 nM Arp2/3, Arpin at 5 μM; 5, 10, 15 and 20 min
Description: as §1
FIG. 10: Quantification of Arpin inhibition on the generation of branched actin networks. Conditions as in FIG. 1d. Images were extracted from the TIRF movies, 5, 10, 15 and 20 min after initiation of the reaction. The number of branches and filaments were counted and the ratio determined.
as §4

[5] = biological target: Arp2/3 complex; experiment: Fluorescence anisotropy based determination of Kd (labelled ArpinA peptide, purified Arp2/3 complex); type: binding; conditions: for displacement of labelled ArpinA peptide bound to the Arp2/3 complex: titration of labelled ArpinA peptide/Arp2/3 complex with purified protein
Description: FIG. 5: Arpin directly binds to the Arp2/3 complex with a dissociation constant of 200 nM. a, Fluorescence anisotropy measurements of labelled ArpinA peptide binding at equilibrium to the purified Arp2/3 complex at the indicated concentrations. b, Labelled ArpinA peptide bound to the Arp2/3 complex was then titrated with purified Arpin FL, ArpinΔA or unlabelled ArpinA peptide as indicated. […] Curves that best fit the values yield the indicated equilibrium constants.
The ArpinA peptide was synthesized and labelled with 5-TAMRA at the N-terminus (PROTEOGENIX). The peptide was excited with polarised light at 549 nm and emitted light was detected at 573 nm using a MOS450 fluorimeter (BIOLOGIC). Measurements were made for 60 s at 1 point/s and the average anisotropy was calculated with the Biologic software. Fits were performed as described in reference 40.

[6] = system: trout keratocytes; experiment: Microinjection of purified protein into migrating fish keratocytes; type: cell-based, brook trout (Salvelinus fontinalis); conditions: injected fish keratocytes; for turning (direction autocorrelation): n≧8, P<0.05 between 16 and 272 s
Excerpt: FIG. 24: Arpin microinjection induces fish keratocyte to turn. a, Trout keratocytes were micro-injected with purified full length Arpin, ArpinΔA or buffer as control. Upon micro-injection of Arpin, lamellipodia were modified and the cells turned. Scale bar, 20 μm. b, Quantifications of the indicated parameters. Mean±sem; n≧8, * P<0.05, *** P<0.001, ANOVA. c, Kymograph of the Arpin microinjected keratocyte. The leading edge undergoes cycles of protrusions and retractions. d, Model. Directional persistence of migration in this cell system requires a positive feedback loop. Branched actin is sensed and activates Rac as a response. In this context, WAVE closes a positive feedback loop. In contrast, Arpin closes a negative feedback loop. These two nested positive and negative feedback loops can account for the oscillatory behavior of the leading edge observed upon Arpin micro-injection.
FIG. 25: Procedures to quantify fish keratocyte migration. a, Kymograph analysis. Lamellipodial dynamics were studied along a one-pixel-wide line oriented in the direction of protrusions, using the MultiKymograph plug-in in ImageJ. Protrusion velocity was the average of all protrusion slopes at the front of the cell. Projections along the distance axis and the time axis, gave, respectively, length and duration of the protrusion. Cell speed was determined using the slope of the dashed line indicating the rear of the cell. b, Outline analysis. Cell contours were defined using CellTrack software (http://db.cse.ohio-state.edu/CellTrack) and manually adjusted when necessary. The cell from frame t is overlayed with the same cell in frame t+100 s, using their center of mass as a reference. The non-overlapping areas are summed up to give the cell deformation between these two frames. […]
Keratocytes were isolated from scales of freshly killed brook trout (Salvelinus fontinalis) as previously described^41 and imaged by phase contrast on an inverted Zeiss Axioscope using ×63 optics, and a halogen lamp as light source. […] Contours were analysed using the CellTrack software (OHIO STATE UNIVERSITY). […]

[7] = system: MDA-MB-231 cells; experiment: Electroporation of MDA-MB-231 cells with purified Arpin; analysis of cell migration; type: cell-based, human
Excerpt: FIG. 27: Electroporation of MDA-MB-231 cells with purified Arpin; analysis of cell migration.
Purified recombinant Arpin can be introduced efficiently into various cell types by electroporation as shown in FIG. 26 with retinal pigment epithelial (RPE-I) cells, mouse embryonic fibroblasts (MEFs) and breast invasive human cell line MDA-MB-231. MDA-MB-231 cells depleted of Arpin migrates faster and more directionally than their respective non-targeting controls (shCtrl).

[8] = system: prechordal plate cells; experiment: Prechordal plate cell migration and protrusions in morpholino-injected zebrafish embryos; type: in vivo
Excerpt: FIG. 17: Arpin regulates protrusion frequency of prechordal plate cells and their collective migration in zebrafish embryos. a, In situ hybridisation of arpin probe in zebrafish embryos at different stages. arpin mRNAs are maternally deposited. During gastrulation, arpin is expressed in hypoblast, which includes the prechordal plate. b, 3D trajectories of prechordal plate cells in embryos injected with control or arpin morpholino. During fish gastrulation, prechordal plate cells migrate collectively in a straight direction from the margin of the embryo towards the animal pole^32,33. […] Lateral displacement is the cell movement perpendicular to main direction of the migration. Distance between cells refers to the average distance of the nucleus of a given cell to the nuclei of its 5 closest neighbors. Mean±sem; n≧1469; *** P<0.001, t-test. c, At the onset of gastrulation prechordal plate cells derived from morpholino injected embryos were transplanted into the prechordal plate of an untreated host embryo at the same stage in order to allow imaging of cell autonomous effects on protrusion formation. Donor embryos are injected with control or arpin morpholinos and mRNAs encoding Lifeact-mCherry as well as GFP-Arpin for the rescue. Time lapse imaging of injected cells is performed by epifluorescence to reveal Lifeact a marker of filamentous actin, which stains actin-based protrusions. […]

**Q.** What does the source list for “Arpin: protein of SEQ ID NO: 1, product of human C15orf38 gene (residues 1-226); new inhibitor of the Arp2/3 complex”?
**A.** competition with the NPF (VCA) for Arp2/3 binding [1]: Arp2/3 is displaced from its interaction with the VCA; effect on spontaneous actin nucleation and activation of the Arp2/3 complex ([2]; 2 μM Actin (10% pyrene-labelled), 20 nM Arp2/3, 500 nM Scar VCA, 5 μM Arpin): does not affect spontaneous actin nucleation and does not activate the Arp2/3 complex; inhibition of VCA-activated Arp2/3 actin polymerisation [2]: inhibited actin polymerisation in a dose-dependent manner; Kd ([2]; in a mixture including actin and the VCA, best fit of number of actin barbed ends, read-out: apparent Kd for the Arp2/3 complex from inhibition of Arp2/3 nucleation): 0.76 ± 0.156 µM; Arp2/3 binding in pulldown [3]: binds to the Arp2/3 complex through its acidic C-terminal region; frequency of branches in actin networks (ratio branches/filaments) [4]: decreases the frequency of branches in actin networks; Kd ([5]; fluorescence anisotropy, purified Arp2/3 complex, read-out: dissociation constant for binding to the Arp2/3 complex): 0.2 µM; displacement of labelled ArpinA peptide bound to the Arp2/3 complex [5]: displaces the labelled ArpinA peptide more efficiently than the A peptide; territory explored (Mean Square Displacement) ([6]; n≧8, P<0.001): explore a smaller territory than the controls; turning (direction autocorrelation) [6]: turn more than wild type; speed and persistence of migration ([7]; Arpin-depleted MDA-MB-231 cells electroporated with purified Arpin): speed and persistence decreased; idling (active movement) ([7]; MDA-MB-231 cells electroporated with Arpin protein): more idling (less active movement)

**Q.** With “ArpinA: ArpinA peptide, residues 211-226 of full length Arpin (last 16 amino-acids, EIREQGDGAEDEEWDD)” as the substance, how does the “competition with the NPF (VCA) for Arp2/3 binding” value [1] read?
**A.** competes with the NPF for Arp2/3 binding

**Q.** And the “inhibition of VCA-activated Arp2/3 actin polymerisation” value (shortened to “inhibition”) [2]?
**A.** inhibits Arp2/3 activation in a dose dependent manner

**Q.** What about the “inhibition” value ([2]; listed as Acidic peptide) of the same substance?
**A.** sufficient for this inhibition, although it was less effective than full length Arpin

**Q.** How did the “competition with the NPF (VCA) for Arp2/3 binding” value [1] turn out when “ArpinΔA: Arpin deleted of its last 16 amino-acids (residues 1-210); human or zebrafish recombinant” was run?
**A.** not

**Q.** And the “inhibition” value [2]?
**A.** not

**Q.** What about the “displacement of labelled ArpinA peptide bound to the Arp2/3 complex” value [5] of the same substance?
**A.** unable to displace the ArpinA peptide

**Q.** What about the “turning (direction autocorrelation)” value [6] of the same substance?
**A.** turn more than wild type but less than wild type Arpin injected keratocytes

**Q.** What does the source list for “GTTGTCATAAATACGACTCATCTTC (all phosphorodiamidate morpholino (PMO)) [arpin morpholino]”?
**A.** dispersion of prechordal plate cells (lateral displacement, distance between cells) ([8]; embryos injected with control or arpin morpholino, n≧1469, P<0.001): induces dispersion as evidenced by increased lateral cell displacement and a higher distance between cells; probability of presence of protrusions and their duration ([8]; transplanted prechordal plate cells from morpholino injected embryos, P<0.05): increases the probability of presence of protrusions
